Assay results published in publication PMC5762204 (Journal of Pharmaceutical Analysis, 2014).

Assay: Pharmacokinetic study in rats after oral administration
Type: in vivo
Settings: male, Wistar, rat, plasma

| Tmax [h] | half-life [h] | SMILES |
| --- | --- | --- |
| 0.75 | 5.6 ± 0.1 | CCC(C)(C)C(=O)O[C@H]1C[C@@H](C)C=C2C=C[C@H](C)[C@H](CC[C@@H]3C[C@@H](O)CC(=O)O3)[C@H]21 [Simvastatin, simvastatin] |
| 1 | 6.1 ± 0.2 | N[C@@H](CC(=O)N1CCn2c(nnc2C(F)(F)F)C1)Cc1cc(F)c(F)cc1F [Sitagliptin, sitagliptin] |
